# Test results as given in article PMC3690439 (Nuclear medicine and biology, 2012).
# Read-outs that look alike come from different tables or passages of the source.
# Tests used:
# [1] = target: P-glycoprotein (Pgp) (Homo sapiens, UniProt P08183); test: Rhodamine 123 efflux inhibition assay in CCRFvcr1000 cells; assay type: cell-based
# [2] = system: EMT6Ar1.0 tumors; conditions: murine tumor model; cited from earlier work
# [3] = target: P-glycoprotein (Pgp) at the blood-brain barrier (Mus musculus, UniProt P21447); conditions: FVB wild-type mice; cited from earlier work
# [4] = system: P-glycoprotein (Pgp) at the blood-brain barrier; conditions: Mdr1a/b(-/-) mice; cited from earlier work
# P-glycoprotein (Pgp), sequence (P08183 whole entry): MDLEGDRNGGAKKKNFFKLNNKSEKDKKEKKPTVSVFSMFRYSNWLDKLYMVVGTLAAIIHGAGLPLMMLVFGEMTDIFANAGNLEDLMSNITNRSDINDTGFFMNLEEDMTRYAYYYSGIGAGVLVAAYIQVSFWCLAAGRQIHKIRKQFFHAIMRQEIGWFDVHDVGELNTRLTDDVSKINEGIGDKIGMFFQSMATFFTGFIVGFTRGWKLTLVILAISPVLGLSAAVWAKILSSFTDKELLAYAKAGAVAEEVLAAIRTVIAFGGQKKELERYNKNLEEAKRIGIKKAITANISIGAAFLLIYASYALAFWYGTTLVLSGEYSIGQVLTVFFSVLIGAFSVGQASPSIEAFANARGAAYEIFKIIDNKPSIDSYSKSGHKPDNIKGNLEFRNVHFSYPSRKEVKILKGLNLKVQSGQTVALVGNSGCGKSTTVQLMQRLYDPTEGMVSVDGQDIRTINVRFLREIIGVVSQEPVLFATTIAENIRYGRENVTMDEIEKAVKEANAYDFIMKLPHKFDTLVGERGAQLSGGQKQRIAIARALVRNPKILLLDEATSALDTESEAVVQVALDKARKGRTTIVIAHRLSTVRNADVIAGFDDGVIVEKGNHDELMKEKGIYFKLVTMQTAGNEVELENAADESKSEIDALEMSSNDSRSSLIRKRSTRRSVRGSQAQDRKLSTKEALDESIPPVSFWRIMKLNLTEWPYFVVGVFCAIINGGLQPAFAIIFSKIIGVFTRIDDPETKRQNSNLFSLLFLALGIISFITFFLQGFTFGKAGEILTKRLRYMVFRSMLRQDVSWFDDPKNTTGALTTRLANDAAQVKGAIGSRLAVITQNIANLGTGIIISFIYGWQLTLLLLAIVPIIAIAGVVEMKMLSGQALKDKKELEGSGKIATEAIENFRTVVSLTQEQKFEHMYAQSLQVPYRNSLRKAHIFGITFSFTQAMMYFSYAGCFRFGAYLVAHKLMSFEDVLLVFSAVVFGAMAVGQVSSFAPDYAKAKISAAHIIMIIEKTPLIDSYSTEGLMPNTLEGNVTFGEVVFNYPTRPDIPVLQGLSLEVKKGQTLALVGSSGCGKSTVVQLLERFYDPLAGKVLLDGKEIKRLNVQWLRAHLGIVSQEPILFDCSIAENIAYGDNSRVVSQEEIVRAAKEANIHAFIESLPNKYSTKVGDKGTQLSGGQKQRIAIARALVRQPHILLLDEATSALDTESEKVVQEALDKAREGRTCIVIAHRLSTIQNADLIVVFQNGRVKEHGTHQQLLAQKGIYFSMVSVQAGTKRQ
# P-glycoprotein (Pgp) at the blood-brain barrier (Mus musculus, UniProt P21447), sequence (P21447 whole entry): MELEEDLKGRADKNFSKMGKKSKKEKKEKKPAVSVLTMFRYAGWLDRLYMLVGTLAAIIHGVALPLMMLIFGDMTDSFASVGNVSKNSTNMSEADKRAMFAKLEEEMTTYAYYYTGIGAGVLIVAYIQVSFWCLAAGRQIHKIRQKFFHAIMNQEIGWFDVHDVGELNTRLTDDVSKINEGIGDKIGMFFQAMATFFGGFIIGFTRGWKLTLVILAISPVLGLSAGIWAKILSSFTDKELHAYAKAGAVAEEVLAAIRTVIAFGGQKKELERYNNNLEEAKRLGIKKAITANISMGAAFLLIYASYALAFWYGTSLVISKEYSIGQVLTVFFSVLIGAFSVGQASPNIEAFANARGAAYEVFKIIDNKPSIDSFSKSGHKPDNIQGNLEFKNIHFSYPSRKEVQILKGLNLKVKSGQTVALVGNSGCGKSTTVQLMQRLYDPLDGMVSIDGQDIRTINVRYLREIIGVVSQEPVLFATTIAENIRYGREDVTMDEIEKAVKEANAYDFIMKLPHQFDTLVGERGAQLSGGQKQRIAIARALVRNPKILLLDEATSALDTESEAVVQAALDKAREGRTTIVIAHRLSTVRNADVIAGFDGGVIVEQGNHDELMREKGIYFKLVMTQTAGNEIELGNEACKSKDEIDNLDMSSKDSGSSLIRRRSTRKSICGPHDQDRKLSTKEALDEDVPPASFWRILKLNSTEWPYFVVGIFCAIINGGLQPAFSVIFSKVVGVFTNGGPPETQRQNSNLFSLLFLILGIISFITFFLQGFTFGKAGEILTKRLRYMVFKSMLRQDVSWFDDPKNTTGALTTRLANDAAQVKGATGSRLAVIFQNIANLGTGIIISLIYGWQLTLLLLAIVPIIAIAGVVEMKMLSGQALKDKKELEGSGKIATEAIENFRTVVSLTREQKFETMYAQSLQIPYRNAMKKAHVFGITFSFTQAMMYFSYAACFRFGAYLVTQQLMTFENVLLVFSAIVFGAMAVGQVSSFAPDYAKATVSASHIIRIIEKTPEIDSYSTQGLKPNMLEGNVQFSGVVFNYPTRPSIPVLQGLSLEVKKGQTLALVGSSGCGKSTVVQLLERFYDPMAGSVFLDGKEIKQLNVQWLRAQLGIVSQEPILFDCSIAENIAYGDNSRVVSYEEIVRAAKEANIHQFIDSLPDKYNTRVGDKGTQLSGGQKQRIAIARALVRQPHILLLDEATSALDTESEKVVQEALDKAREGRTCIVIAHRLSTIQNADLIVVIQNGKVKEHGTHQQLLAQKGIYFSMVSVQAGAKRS
compound,measurement,setting,value
COc1ccc(-c2ccc(CN3CCc4cc(OC)c(OC)cc4C3)cc2)cc1 [MC113],IC50,"[1]; read-out: IC50 for inhibition of Pgp-mediated rhodamine 123 efflux, CCRFvcr1000 cells, mean±SD, at least 3 independent experiments in duplicate",375 ± 60 nM
COc1cc2c(cc1OC)CN(CCc1ccc(NC(=O)c3cc(OC)c(OC)cc3NC(=O)c3cnc4ccccc4c3)cc1)CC2 [[^11C]tariquidar],higher AUC0-60 in EMT6Ar1.0 than in EMT6 tumors,[2],approximately 60%
same,mean brain AUC0-60,[3],9 ± 1 min
same,mean brain AUC0-60,[4],17 ± 2 min
COc1cc2c(cc1OC)CN(CCc1ccc(NC(=O)c3cc(OC)c(OC)cc3NC(=O)c3cnc4ccccc4c3)cc1)CC2 [tariquidar],IC50,[1],8.5 ± 2.5 nM
